Test results as given in US7265129B2, “Anti-infective biaryl compounds” (priority 2002, dated 2007).

Key:
[1] = tested on: S. pneumoniae ATCC 49619; assay: MIC, NCCLS broth microdilution, S. pneumoniae; assay type: cell-based, Streptococcus pneumoniae
Source text: (§1) It vitro biological activity data were collected for a variety of microorganisms, including Bacillus cereus (ATCC 11778), Staphylococcus aureus (ATCC 33591; ATCC 27660, a methicillin resistant strain (MRSA); ATCC 13709, a methicillin sensitive strain (MSSA)), Enterococcus faecalis (ATCC 29212), and Streptococcus pneumoniae (ATCC 49619). Additionally, antifungal activity data were collected for Candida albicans (ATCC 38247).
(§2) Compounds according to this invention were screened for their in vitro activities against selected species of bacteria and fungi. The minimal inhibition concentration (MIC) of these compounds was determined using the National Committee for Clinical Laboratory Standards (NCCLS) broth microdilution assay in microtiter plates, as set forth in: (1) the guidelines of the National Committee for Clinical Laboratory Standards (NCCLS) Document M7-A4 (NCCLS, 1997); (2) the guidelines of the National Committee for Clinical Laboratory Standards (NCCLS) Document M11-A4 (NCCLS, 1997); and (3) the guidelines and reference method of the National Committee for Clinical Laboratory Standards (NCCLS) Document M27-T (NCCLS, 1995). For antifungal assays, the method recommended in Murray, P R., 1995 Manual of Clinical Microbiology (ASM Press, Washington, D.C.), was employed.

[2] = tested on: C. albicans ATCC 38247; assay: MIC, antifungal assay, C. albicans; assay type: cell-based, Candida albicans
Source text: as §1, §2

[3] = tested on: B. cereus ATCC 11778; assay: MIC, NCCLS broth microdilution, B. cereus; assay type: cell-based, Bacillus cereus
Source text: as §1, §2

[4] = tested on: S. aureus ATCC 27660; assay: MIC, NCCLS broth microdilution, S. aureus MRSA; assay type: cell-based, Staphylococcus aureus; conditions: S. aureus ATCC 27660, methicillin resistant strain (MRSA)
Source text: as §1, §2

[5] = tested on: S. aureus ATCC 33591; assay: MIC, NCCLS broth microdilution, S. aureus ATCC 33591; assay type: cell-based, Staphylococcus aureus
Source text: as §1, §2

[6] = tested on: E. faecalis ATCC 29212; assay: MIC, NCCLS broth microdilution, E. faecalis; assay type: cell-based, Enterococcus faecalis
Source text: as §1, §2

[7] = tested on: S. aureus ATCC 13709; assay: MIC, NCCLS broth microdilution, S. aureus MSSA; assay type: cell-based, Staphylococcus aureus; conditions: S. aureus ATCC 13709, methicillin sensitive strain (MSSA)
Source text: as §1, §2

CN(C)CCCn1cc(NC(=O)c2sc3ccccc3c2Cl)cc1C(=O)Nc1cc(-c2nc3ccncc3[nH]2)n(C)c1 [Compound A-29]
Minimum Inhibitory Concentration (MIC), organism G [1]: +++ (MIC ≦ 4 μg/mL) | Minimum Inhibitory Concentration (MIC), organism B [2]: ++ (4 < MIC < 12 μg/mL) | Minimum Inhibitory Concentration (MIC), organism A [3]: +++ (MIC ≦ 4 μg/mL) | Minimum Inhibitory Concentration (MIC), organism E [4]: +++ (MIC ≦ 4 μg/mL) | Minimum Inhibitory Concentration (MIC), organism F [5]: +++ (MIC ≦ 4 μg/mL) | Minimum Inhibitory Concentration (MIC), organism C [6]: +++ (MIC ≦ 4 μg/mL) | Minimum Inhibitory Concentration (MIC), organism D [7]: +++ (MIC ≦ 4 μg/mL)

Cn1cc(NC(=O)c2cc3ccccc3cn2)cc1C(=O)Nc1cc(-c2nc3ccncc3[nH]2)n(C)c1 [Compound A-14]
Minimum Inhibitory Concentration (MIC), organism G [1]: +++ (MIC ≦ 4 μg/mL) | Minimum Inhibitory Concentration (MIC), organism B [2]: >32 µg/mL | Minimum Inhibitory Concentration (MIC), organism A [3]: +++ (MIC ≦ 4 μg/mL) | Minimum Inhibitory Concentration (MIC), organism E [4]: +++ (MIC ≦ 4 μg/mL) | Minimum Inhibitory Concentration (MIC), organism F [5]: +++ (MIC ≦ 4 μg/mL) | Minimum Inhibitory Concentration (MIC), organism C [6]: +++ (MIC ≦ 4 μg/mL) | Minimum Inhibitory Concentration (MIC), organism D [7]: +++ (MIC ≦ 4 μg/mL)

CC1CCN(CCCn2cc(NC(=O)c3ccc(Cl)cc3F)cc2C(=O)Nc2cc(-c3nc4ccccc4[nH]3)n(C)c2)CC1 [Compound A-38]
Minimum Inhibitory Concentration (MIC), organism G [1]: +++ (MIC ≦ 4 μg/mL) | Minimum Inhibitory Concentration (MIC), organism B [2]: + (12 ≦ MIC ≦ 32 μg/mL) | Minimum Inhibitory Concentration (MIC), organism A [3]: +++ (MIC ≦ 4 μg/mL) | Minimum Inhibitory Concentration (MIC), organism E [4]: +++ (MIC ≦ 4 μg/mL) | Minimum Inhibitory Concentration (MIC), organism F [5]: +++ (MIC ≦ 4 μg/mL) | Minimum Inhibitory Concentration (MIC), organism C [6]: +++ (MIC ≦ 4 μg/mL) | Minimum Inhibitory Concentration (MIC), organism D [7]: +++ (MIC ≦ 4 μg/mL)

Cn1cc(NC(=O)c2cc(NC(=O)c3ccc(Cl)cc3F)cn2CCCN(CCO)CCO)cc1-c1nc2cccnc2[nH]1 [Compound A-44]
Minimum Inhibitory Concentration (MIC), organism G [1]: +++ (MIC ≦ 4 μg/mL) | Minimum Inhibitory Concentration (MIC), organism B [2]: >32 µg/mL | Minimum Inhibitory Concentration (MIC), organism A [3]: + (12 ≦ MIC ≦ 32 μg/mL) | Minimum Inhibitory Concentration (MIC), organism E [4]: +++ (MIC ≦ 4 μg/mL) | Minimum Inhibitory Concentration (MIC), organism F [5]: +++ (MIC ≦ 4 μg/mL) | Minimum Inhibitory Concentration (MIC), organism C [6]: ++ (4 < MIC < 12 μg/mL) | Minimum Inhibitory Concentration (MIC), organism D [7]: ++ (4 < MIC < 12 μg/mL)

CN(C)CCCn1cc(NC(=O)c2cc3ccccc3cn2)cc1C(=O)Nc1cc(-c2nc3ncncc3[nH]2)n(C)c1 [Compound A-15]
Minimum Inhibitory Concentration (MIC), organism G [1]: +++ (MIC ≦ 4 μg/mL) | Minimum Inhibitory Concentration (MIC), organism B [2]: >32 µg/mL | Minimum Inhibitory Concentration (MIC), organism A [3]: + (12 ≦ MIC ≦ 32 μg/mL) | Minimum Inhibitory Concentration (MIC), organism E [4]: + (12 ≦ MIC ≦ 32 μg/mL) | Minimum Inhibitory Concentration (MIC), organism F [5]: + (12 ≦ MIC ≦ 32 μg/mL) | Minimum Inhibitory Concentration (MIC), organism C [6]: ++ (4 < MIC < 12 μg/mL) | Minimum Inhibitory Concentration (MIC), organism D [7]: + (12 ≦ MIC ≦ 32 μg/mL)

CN(C)CCCn1cc(NC(=O)c2sccc2Cl)cc1C(=O)Nc1cc(-c2nc3ncncc3[nH]2)n(C)c1 [Compound A-63]
Minimum Inhibitory Concentration (MIC), organism G [1]: +++ (MIC ≦ 4 μg/mL) | Minimum Inhibitory Concentration (MIC), organism B [2]: >32 µg/mL | Minimum Inhibitory Concentration (MIC), organism A [3]: >32 µg/mL | Minimum Inhibitory Concentration (MIC), organism E [4]: + (12 ≦ MIC ≦ 32 μg/mL) | Minimum Inhibitory Concentration (MIC), organism F [5]: + (12 ≦ MIC ≦ 32 μg/mL) | Minimum Inhibitory Concentration (MIC), organism C [6]: + (12 ≦ MIC ≦ 32 μg/mL) | Minimum Inhibitory Concentration (MIC), organism D [7]: + (12 ≦ MIC ≦ 32 μg/mL)

CN(C)CCCn1cc(NC(=O)c2sc3ccccc3c2Cl)cc1C(=O)Nc1cc(-c2nc3ncccc3[nH]2)n(C)c1 [Compound A-28]
Minimum Inhibitory Concentration (MIC), organism G [1]: +++ (MIC ≦ 4 μg/mL) | Minimum Inhibitory Concentration (MIC), organism B [2]: >32 µg/mL | Minimum Inhibitory Concentration (MIC), organism A [3]: +++ (MIC ≦ 4 μg/mL) | Minimum Inhibitory Concentration (MIC), organism E [4]: +++ (MIC ≦ 4 μg/mL) | Minimum Inhibitory Concentration (MIC), organism F [5]: +++ (MIC ≦ 4 μg/mL) | Minimum Inhibitory Concentration (MIC), organism C [6]: +++ (MIC ≦ 4 μg/mL) | Minimum Inhibitory Concentration (MIC), organism D [7]: +++ (MIC ≦ 4 μg/mL)

Cn1cc(NC(=O)c2cc(NC(=O)c3sc4ccccc4c3Cl)cn2CCCN2CCC(F)(F)CC2)cc1-c1nc2ccccc2[nH]1 [Compound A-25]
Minimum Inhibitory Concentration (MIC), organism G [1]: ++ (4 < MIC < 12 μg/mL) | Minimum Inhibitory Concentration (MIC), organism B [2]: >32 µg/mL | Minimum Inhibitory Concentration (MIC), organism A [3]: >32 µg/mL | Minimum Inhibitory Concentration (MIC), organism E [4]: + (12 ≦ MIC ≦ 32 μg/mL) | Minimum Inhibitory Concentration (MIC), organism F [5]: + (12 ≦ MIC ≦ 32 μg/mL) | Minimum Inhibitory Concentration (MIC), organism C [6]: + (12 ≦ MIC ≦ 32 μg/mL) | Minimum Inhibitory Concentration (MIC), organism D [7]: + (12 ≦ MIC ≦ 32 μg/mL)

CN(C)CCCn1cc(NC(=O)c2ccc(Cl)cc2F)cc1C(=O)Nc1cc(-c2nc3cncnc3[nH]2)n(C)c1 [Compound A-46]
Minimum Inhibitory Concentration (MIC), organism G [1]: +++ (MIC ≦ 4 μg/mL) | Minimum Inhibitory Concentration (MIC), organism B [2]: >32 µg/mL | Minimum Inhibitory Concentration (MIC), organism A [3]: +++ (MIC ≦ 4 μg/mL) | Minimum Inhibitory Concentration (MIC), organism E [4]: +++ (MIC ≦ 4 μg/mL) | Minimum Inhibitory Concentration (MIC), organism F [5]: +++ (MIC ≦ 4 μg/mL) | Minimum Inhibitory Concentration (MIC), organism C [6]: +++ (MIC ≦ 4 μg/mL) | Minimum Inhibitory Concentration (MIC), organism D [7]: +++ (MIC ≦ 4 μg/mL)

Cn1cc(NC(=O)c2cc(NC(=O)c3sccc3Cl)cn2CCC[n+]2ccccc2)cc1-c1nc2ncccc2[nH]1 [Compound A-62]
Minimum Inhibitory Concentration (MIC), organism G [1]: + (12 ≦ MIC ≦ 32 μg/mL) | Minimum Inhibitory Concentration (MIC), organism B [2]: >32 µg/mL | Minimum Inhibitory Concentration (MIC), organism A [3]: >32 µg/mL | Minimum Inhibitory Concentration (MIC), organism E [4]: + (12 ≦ MIC ≦ 32 μg/mL) | Minimum Inhibitory Concentration (MIC), organism F [5]: + (12 ≦ MIC ≦ 32 μg/mL) | Minimum Inhibitory Concentration (MIC), organism C [6]: >32 µg/mL | Minimum Inhibitory Concentration (MIC), organism D [7]: >32 µg/mL

Cn1cc(NC(=O)c2cc3ccccc3cn2)cc1C(=O)Nc1cc(-c2nc3ccc(NC(=O)CCN4CCOCC4)cc3[nH]2)n(C)c1 [Compound A-11]
Minimum Inhibitory Concentration (MIC), organism G [1]: +++ (MIC ≦ 4 μg/mL) | Minimum Inhibitory Concentration (MIC), organism B [2]: >32 µg/mL | Minimum Inhibitory Concentration (MIC), organism A [3]: +++ (MIC ≦ 4 μg/mL) | Minimum Inhibitory Concentration (MIC), organism E [4]: +++ (MIC ≦ 4 μg/mL) | Minimum Inhibitory Concentration (MIC), organism F [5]: +++ (MIC ≦ 4 μg/mL) | Minimum Inhibitory Concentration (MIC), organism C [6]: +++ (MIC ≦ 4 μg/mL) | Minimum Inhibitory Concentration (MIC), organism D [7]: +++ (MIC ≦ 4 μg/mL)

Cn1cc(NC(=O)c2cc(NC(=O)c3ccc(Cl)cc3F)cn2CCCN2CCC(O)CC2)cc1-c1nc2ccccc2[nH]1 [Compound A-34]
Minimum Inhibitory Concentration (MIC), organism G [1]: +++ (MIC ≦ 4 μg/mL) | Minimum Inhibitory Concentration (MIC), organism B [2]: + (12 ≦ MIC ≦ 32 μg/mL) | Minimum Inhibitory Concentration (MIC), organism A [3]: +++ (MIC ≦ 4 μg/mL) | Minimum Inhibitory Concentration (MIC), organism E [4]: +++ (MIC ≦ 4 μg/mL) | Minimum Inhibitory Concentration (MIC), organism F [5]: +++ (MIC ≦ 4 μg/mL) | Minimum Inhibitory Concentration (MIC), organism C [6]: +++ (MIC ≦ 4 μg/mL) | Minimum Inhibitory Concentration (MIC), organism D [7]: +++ (MIC ≦ 4 μg/mL)

CN(C)CCCn1cc(NC(=O)c2ccc(F)cc2F)cc1C(=O)Nc1cc(-c2nc3ccncc3[nH]2)n(C)c1 [Compound A-18]
Minimum Inhibitory Concentration (MIC), organism G [1]: +++ (MIC ≦ 4 μg/mL) | Minimum Inhibitory Concentration (MIC), organism B [2]: >32 µg/mL | Minimum Inhibitory Concentration (MIC), organism A [3]: + (12 ≦ MIC ≦ 32 μg/mL) | Minimum Inhibitory Concentration (MIC), organism E [4]: +++ (MIC ≦ 4 μg/mL) | Minimum Inhibitory Concentration (MIC), organism F [5]: +++ (MIC ≦ 4 μg/mL) | Minimum Inhibitory Concentration (MIC), organism C [6]: +++ (MIC ≦ 4 μg/mL) | Minimum Inhibitory Concentration (MIC), organism D [7]: + (12 ≦ MIC ≦ 32 μg/mL)
